Measurements as given in patent US20210260033A1, “COMBINED THERAPY WITH ICOS BINDING PROTEINS AND […] INHIBITORS” (GLAXOSMITHKLINE INTELLECTUAL PROPERTY DEVELOPMENT LIMITED, priority 2018, published 2021).
Where two headings read alike, the source gives them in different places.

How the values were obtained:
[1] = rat, at 14-day MTD […] mg/kg
lymphoma cell lines [2] = experiment: 6-day growth-death assay (Cell Titer Glo); format: cell-based, human; details: Hodgkin's and non-Hodgkin's subtypes
Procedure: (§4) The growth of all cell lines was evaluated over time across a wide range of seeding densities to identify conditions that permitted proliferation throughout the entire 6-day assay. Cells were plated at the optimal seeding density and after overnight incubation, a 20-point 2-fold titration of compound was added and plates were incubated for 6 days. A replicate plate of cells was harvested at the time of compound addition to quantify the starting number of cells (T0). Values obtained after the 6 day treatment were expressed as a function of the T0 value and plotted against compound concentration. The T0 value was normalized to 100% and represents the number of cells at the time of compound addition. The data were fit with a 4 parameter equation to generate a concentration response curve and the growth IC50 (gIC50) was determined. The gIC50 is the midpoint of the ‘growth window’, the difference between the number of cells at the time of compound addition (T0) and the number of cells after 6 days (DMSO control). The growth-death assay can be used to quantify the net population change, clearly defining cell death (cytotoxicity) as fewer cells compared to the number at the time of compound addition (T0).

[3] = system: panel of lymphoma cell lines; experiment: western dose response of arginine methylation; format: cell-based, human; details: all lymphoma cell lines evaluated; 72 hours
Text: Regions quantified for (B) are denoted by black bars to the left of gels. […] Corresponding gIC50 values in 6-day growth death assay are as indicated in red.

[4] = dog, at 21-day MTD […] mg/kg
AML cell lines [5] = experiment: 6-day growth-death assay (Cell Titer Glo); format: cell-based, human; details: 10 cell lines
Procedure: as §4

Toledo DLBCL cells = experiment: western analysis of arginine methylation, timecourse; format: cell-based, human; details: 0.4 uM
Procedure: (B) Representative western blots of arginine methylation marks. Regions quantified are denoted by black bars on the right of the gel.
As predicted, ADMA methylation decreased while MMA increased upon compound exposure (FIG. 12). […] Given the detection of numerous substrates with varying kinetics, and variability of ADMA levels among DMSO-treated samples, both the full lane and a prominent 45 kDa band were characterized to assess ADMA. Increases in MMA were apparent by 24 hours and near maximal by 48 hours while decreases in the 45 kDa ADMA band required 72-96 hours to achieve maximal effect. Increases in SDMA were apparent after 48 hours of compound exposure and continued to increase through 120 hours, consistent with the potential switch from conversion of MMA to ADMA by Type I PRMTs to SDMA by Type II PRMTs (FIG. 12).

lymphoma cell lines [6] = experiment: 6 and 10 day proliferation assays; format: cell-based, human; details: day 10 vs day 6
Text: (§1) (B) Ymin-T0 at 6 day (light blue) and 10 day (dark blue) with corresponding gIC100 (red points).

AML cell lines [7] = experiment: 6 and 10 day proliferation assays; format: cell-based, human; details: day 10 vs day 6
Text: as §1

U2932 = system: U2932
Procedure: (§2) FIG. 18: Propidium iodide FACS analysis of cell cycle in human lymphoma cell lines. […] Data represents the average±SEM of biological replicates, n=2.
(§3) By day 7, an increase in the sub-G1 population was apparent at concentrations ≥100 nM.

OCI-Ly1 = system: OCI-Ly1
Procedure: as §2, §3

kidney cancer cell lines = experiment: 6-day growth-death assay (Cell Titer Glo); format: cell-based, human; details: renal cell carcinoma lines tested
Procedure: as §4

AML cell lines [8] = experiment: Methylscan proteomic evaluation of arginine methylation; format: cell-based; details: AML cell lines treated with the tool compound vs DMSO
Text: FIG. 3: Methylscan evaluation of cell lines treated with Compound D. Percent of proteins with methylation changes (independent of directionality of change) are categorized by functional group as indicated.
To identify putative PRMT1 substrates, a proteomic approach (Methylscan, Cell Signaling Technology) was utilized to identify proteins with changes in arginine methylation states in response to a tool PRMT1 inhibitor, Compound D. Protein fragments from Compound D- and DSMO-treated cell extracts were immunoprecipitated using methyl arginine specific antibodies (ADMA, MMA, SDMA), and peptides were identified by mass spectrometry.

Compound	Cave (total AUC or exposure) [1]	sensitivity by lymphoma subtype (lymphoma cell lines [2])	45 kDa ADMA band [3]	Cave (total AUC or exposure) [4]	number of cell lines in which cytotoxicity was induced (AML cell lines [5])	time to maximal decrease of the 45 kDa ADMA band (Toledo DLBCL cells)	change of ADMA methylation (Toledo DLBCL cells; up to 120 hours)	change of MMA (Toledo DLBCL cells; up to 120 hours)	change of SDMA (Toledo DLBCL cells; up to 120 hours)	effect of extended exposure on potency (gIC50) or cytotoxicity (Ymin-T0) (lymphoma cell lines [6])	effect of extended exposure on potency (gIC50) or cytotoxicity (Ymin-T0) (AML cell lines [7])	concentration at which sub-G1 effect was evident (U2932)	concentration at which sub-G1 effect was evident (OCI-Ly1)	cytotoxic response (kidney cancer cell lines)	proteins with changes in arginine methylation states (ADMA, MMA, SDMA) (AML cell lines [8])
CCOCC1(COCC)CCC(c2n[nH]cc2CN(C)CCNC)CC1 [Compound A]	2.1 µM	equally sensitive	decreased to undetectable levels	3.2 µM	5 cell lines	72 to 96 h	decreased	increased	increase	minimal effects	minimal effects	10 µM	10 µM	none of the lines tested showed a cytotoxic response	
CNCCN(C)Cc1c[nH]nc1[C@H]1CC[C@@]2(CC1)CC(C)(C)CO2 [Compound D]															the majority of substrates identified were transcriptional regulators and RNA processing proteins
